Data: ChEMBL document CHEMBL2086385, “Synthesis and antimicrobial evaluation of L-phenylalanine-derived C5-substituted rhodanine and chalcone derivatives containing thiobarbituric acid or 2-thioxo-4-thiazolidinone” (2012)

Columns and labels:
Assay type in all cases: functional
[1] = tested on: Staphylococcus aureus; test: Antibacterial activity against Staphylococcus aureus KCTC 209 after 24 hrs by broth microdilution method; conditions: KCTC 209, 24 h
[2] = tested on: Staphylococcus aureus; test: Antibacterial activity against Staphylococcus aureus KCTC 503 after 24 hrs by broth microdilution method; conditions: KCTC 503, 24 h
[3] = tested on: Staphylococcus aureus; test: Antibacterial activity against Staphylococcus aureus RN4220 after 24 hrs by broth microdilution method; conditions: RN4220, 24 h
[4] = tested on: Escherichia coli; test: Antibacterial activity against Escherichia coli CCARM 1356 after 24 hrs by broth microdilution method; conditions: CCARM 1356, 24 h
[5] = tested on: Staphylococcus aureus; test: Antibacterial activity against methicillin-resistant Staphylococcus aureus CCARM 3167 clinical isolate after 24 hrs by broth microdilution method; conditions: CCARM 3167, 24 h
[6] = tested on: Staphylococcus aureus; test: Antibacterial activity against methicillin-resistant Staphylococcus aureus CCARM 3506 clinical isolate after 24 hrs by broth microdilution method; conditions: CCARM 3506, 24 h
[7] = tested on: Staphylococcus aureus; test: Antibacterial activity against quinolone-resistant Staphylococcus aureus CCARM 3505 clinical isolate after 24 hrs by broth microdilution method; conditions: CCARM 3505, 24 h
[8] = tested on: Staphylococcus aureus; test: Antibacterial activity against quinolone-resistant Staphylococcus aureus CCARM 3519 clinical isolate after 24 hrs by broth microdilution method; conditions: CCARM 3519, 24 h

Measured: MIC

O=Cc1ccc(OCc2cccc(F)c2)cc1
> 64 µg/mL: all assays above

O=Cc1ccc(OCc2ccccc2)cc1
> 64 µg/mL: all assays above

O=Cc1ccc(OCc2cccc(Br)c2)cc1
> 64 µg/mL: all assays above

CC(=O)Nc1ccc(C(=O)/C=C/c2ccc(C=O)cc2)cc1
> 64 µg/mL: all assays above

O=Cc1ccc(/C=C/C(=O)c2ccccc2)cc1
> 64 µg/mL: all assays above

O=Cc1ccc(/C=C/C(=O)c2ccc(Cl)cc2)cc1
> 64 µg/mL: all assays above

O=Cc1ccc(/C=C/C(=O)c2ccc(Br)cc2)cc1
> 64 µg/mL: all assays above

O=Cc1ccc(OCc2ccc(Br)cc2)cc1
> 64 µg/mL: all assays above

O=C1NC(=S)NC(=O)C1=Cc1ccc(/C=C/C(=O)c2ccc(F)cc2)cc1
> 64 µg/mL: all assays above

O=Cc1ccc(/C=C/C(=O)c2ccc3ccccc3c2)cc1
> 64 µg/mL: all assays above

O=Cc1ccc(/C=C/C(=O)c2ccccc2Cl)cc1
> 64 µg/mL: all assays above
